Patent US6645918B1, “N-([1,2,4]triazoloazinyl)thiophenesulfonamide compounds and their use as herbicides” (Dow AgroSciences LLC, priority 2000, dated 2003)

Tests used:
Assay type in all cases: in vivo
[1] = system: velvetleaf (Abutilion theophrasti); assay: Postemergence herbicidal activity, velvetleaf; settings: foliar spray, visual after 2 weeks, 0 no injury, 100 complete kill
Procedure: (§1) Seeds of the desired test plant species were planted in Grace-Sierra MetroMix® 306 planting mixture, which typically has a pH of 6.0 to 6.8 and an organic matter content of about 30 percent, in plastic pots with a surface area of 64 square centimeters. When required to ensure good germination and healthy plants, a fungicide treatment and/or other chemical or physical treatment was applied. The plants were grown for 7-21 days in a greenhouse with an approximately 15 hr photoperiod which was maintained at about 23-29° C. during the day and 22-28° C. during the night. Nutrients and water were added on a regular basis and supplemental lighting was provided with overhead metal halide 1000 Watt lamps as necessary. The plants were employed for testing when they reached the first or second true leaf stage. A weighed amount of each test compound, determined by the highest rate to be tested, was placed in a 20 mL glass vial and was dissolved in 4 mL of a 97:3 v/v (volume/volume) mixture of acetone and dimethyl sulfoxide to obtain concentrated stock solutions. […] The concentrated stock solutions obtained were diluted with an aqueous mixture containing acetone, water, iso-propyl alcohol, dimethyl sulfoxide, Atplus 411F crop oil concentrate, and Triton X-155 surfactant (methylenebisdiamyl phenoxy polyethoxy ethanol) in a 48.5:39:10:1.5:1.0:0.02 v/v ratio to obtain spray solutions of known concentration. The solutions containing the highest concentration to be tested were prepared by diluting 2 mL aliquots of the stock solution with 13 mL of the mixture and lower concentrations were prepared by dilution of appropriate smaller portions of the stock solution. Approximately 1.5 mL aliquots of each solution of known concentration were sprayed evenly onto each of the test plant pots using a DeVilbiss atomizer driven by compressed air pressure of 2 to 4 psi (140 to 280 kilopascals) to obtain thorough coverage of each plant. Control plants were sprayed in the same manner with the aqueous mixture. In this test an application rate of 1 ppm results in the application of approximately 1 g/ha. The treated plants and control plants were placed in a greenhouse as described above and watered by sub-irrigation to prevent wash-off of the test compounds. After 2 weeks the condition of the test plants as compared with that of the untreated plants was determined visually and scored on a scale of 0 to 100 percent where 0 corresponds to no injury and 100 corresponds to complete kill.

[2] = system: pigweed (Amaranthus retroflexus); assay: Postemergence herbicidal activity, pigweed; settings: 7.8 ppm, foliar spray, visual after 2 weeks; 0 no injury, 100 complete kill
Procedure: as §1

wild oats (Avena fatua) [3] = assay: Preemergence herbicidal activity, wild oats; settings: 4.4 g/Ha, soil spray, visual after 3 weeks; 0 no injury, 100 complete kill or no germination
Procedure: (§2) The soil matrix was contained in plastic pots with a surface area of 161 square centimeters. When required to ensure good germination and healthy plants, a fungicide treatment and/or other chemical or physical treatment was applied. A weighed amount, determined by the highest rate to be tested, of each test compound was placed in a 20 mL glass vial and was dissolved in 8 mL of a 97:3 v/v (volume/volume) mixture of acetone and dimethyl sulfoxide to obtain concentrated stock solutions. […] The stock solutions obtained were diluted with a 99.9:0.1 mixture of water and Tween® 155 surfactant (ethoxylated sorbitan fatty acid ester) to obtain application solutions of known concentration. The solutions containing the highest concentration to be tested were prepared by diluting 4 mL aliquots of the stock solution with 8.5 mL of the mixture and lower concentrations were prepared by dilution of appropriate smaller portions of the stock solution. A 2.5 mL aliquot of each solution of known concentration was sprayed evenly onto the soil of each seeded pot using a Cornwall 5.0 mL glass syringe fitted with a TeeJet TN-3 hollow cone nozzle to obtain thorough coverage of the soil in each pot. Control pots were sprayed in the same manner with the aqueous mixture. A highest application rate of 4.48 kg/ha is achieved when 50 mg of test compound is employed. The treated pots and control pots were placed in a greenhouse with an approximately 15 hr photoperiod which was maintained at about 23-29° C. during the day and 22-28° C. during the night. Nutrients and water were added on a regular basis and supplemental lighting was provided with overhead metal halide 1000 Watt lamps as necessary. The water was added by top-irrigation. After 3 weeks the condition of the test plants that germinated and grew as compared with that of the untreated plants that germinated and grew was determined visually and scored on a scale of 0 to 100 percent where 0 corresponds to no injury and 100 corresponds to complete kill or no germination.

[4] = system: giant foxtail (Setaria faberi); assay: Postemergence herbicidal activity, giant foxtail; settings: foliar spray, visual after 2 weeks, 0 no injury, 100 complete kill
Procedure: as §1

[5] = system: Rox orange sorghum (Sorghum bicolor); assay: Postemergence herbicidal activity, Rox orange sorghum; settings: foliar spray, visual after 2 weeks, 0 no injury, 100 complete kill
Procedure: as §1

[6] = system: Rox orange sorghum (Sorghum bicolor); assay: Preemergence herbicidal activity, Rox orange sorghum; settings: 4.4 g/Ha, soil spray, visual after 3 weeks; 0 no injury, 100 complete kill or no germination
Procedure: as §2

[7] = system: morningglory (Ipomoea hederacea); assay: Preemergence herbicidal activity, morningglory; settings: 4.4 g/Ha, soil spray, visual after 3 weeks; 0 no injury, 100 complete kill or no germination
Procedure: as §2

[8] = system: blackgrass (Alopecurus myosuroides); assay: Preemergence herbicidal activity, blackgrass; settings: 4.4 g/Ha, soil spray, visual after 3 weeks; 0 no injury, 100 complete kill or no germination
Procedure: as §2

[9] = system: chickweed (Stellaria media); assay: Postemergence herbicidal activity, chickweed; settings: foliar spray, visual after 2 weeks, 0 no injury, 100 complete kill
Procedure: as §1

viola (Viola tricolor) = assay: Postemergence herbicidal activity, viola; settings: foliar spray, visual after 2 weeks, 0 no injury, 100 complete kill
Procedure: as §1

[10] = system: velvetleaf (Abutilion theophrasti); assay: Preemergence herbicidal activity, velvetleaf; settings: 4.4 g/Ha, soil spray, visual after 3 weeks; 0 no injury, 100 complete kill or no germination
Procedure: as §2

[11] = system: crabgrass (Digitaria sanguinalis); assay: Preemergence herbicidal activity, crabgrass; settings: 4.4 g/Ha, soil spray, visual after 3 weeks; 0 no injury, 100 complete kill or no germination
Procedure: as §2

[12] = system: morningglory (Ipomoea hederacea); assay: Postemergence herbicidal activity, morningglory; settings: foliar spray, visual after 2 weeks, 0 no injury, 100 complete kill
Procedure: as §1

wild oats (Avena fatua) [13] = assay: Postemergence herbicidal activity, wild oats; settings: foliar spray, visual after 2 weeks, 0 no injury, 100 complete kill
Procedure: as §1

[14] = system: lambsquarters (Chenopodium album); assay: Postemergence herbicidal activity, lambsquarters; settings: foliar spray, visual after 2 weeks, 0 no injury, 100 complete kill
Procedure: as §1

[15] = system: lambsquarters (Chenopodium album); assay: Preemergence herbicidal activity, lambsquarters; settings: 4.4 g/Ha, soil spray, visual after 3 weeks; 0 no injury, 100 complete kill or no germination
Procedure: as §2

[16] = system: cocklebur (Xanthium strumarium); assay: Preemergence herbicidal activity, cocklebur; settings: 4.4 g/Ha, soil spray, visual after 3 weeks; 0 no injury, 100 complete kill or no germination
Procedure: as §2

[17] = system: giant foxtail (Setaria faberi); assay: Preemergence herbicidal activity, giant foxtail; settings: 4.4 g/Ha, soil spray, visual after 3 weeks; 0 no injury, 100 complete kill or no germination
Procedure: as §2

[18] = system: wild poinsettia (Euphorbia heterophylla); assay: Preemergence herbicidal activity, wild poinsettia; settings: 4.4 g/Ha, soil spray, visual after 3 weeks; 0 no injury, 100 complete kill or no germination
Procedure: as §2

[19] = system: blackgrass (Alopecurus myosuroides); assay: Postemergence herbicidal activity, blackgrass; settings: foliar spray, visual after 2 weeks, 0 no injury, 100 complete kill
Procedure: as §1

[20] = system: barnyardgrass (Echinochloa crus-galli); assay: Preemergence herbicidal activity, barnyardgrass; settings: 4.4 g/Ha, soil spray, visual after 3 weeks; 0 no injury, 100 complete kill or no germination
Procedure: as §2

[21] = system: cocklebur (Xanthium strumarium); assay: Postemergence herbicidal activity, cocklebur; settings: foliar spray, visual after 2 weeks, 0 no injury, 100 complete kill
Procedure: as §1

[22] = system: pigweed (Amaranthus retroflexus); assay: Preemergence herbicidal activity, pigweed; settings: 4.4 g/Ha, soil spray, visual after 3 weeks; 0 no injury, 100 complete kill or no germination
Procedure: as §2

SMILES | AVEFA preemergence injury score 0-100 (wild oats (Avena fatua) [3]) | SORBI preemergence injury score 0-100 [6] | IPOHE preemergence injury score 0-100 [7] | ALOMY preemergence injury score 0-100 [8] | ABUTH preemergence injury score 0-100 [10] | DIGSA preemergence injury score 0-100 [11] | XANST preemergence injury score 0-100 [16] | SETFA preemergence injury score 0-100 [17] | EPHHL preemergence injury score 0-100 [18] | ECHCG preemergence injury score 0-100 [20] | AMARE preemergence injury score 0-100 [22] | further results
CCOc1cscc1S(=O)(=O)Nc1nc2c(OC)cnc(OC)n2n1 [Compound 13] | 100% | 100% | 90% | 100% | 80% | 100% | 80% | 100% | 100% | 100% | 90% | ABUTH postemergence injury score 0-100 ([1]; 7.8 ppm): 95%; AMARE postemergence injury score 0-100 [2]: 100%; SETFA postemergence injury score 0-100 ([4]; 7.8 ppm): 95%; SORBI postemergence injury score 0-100 ([5]; 7.8 ppm): 95%; STEME postemergence injury score 0-100 ([9]; 7.8 ppm): 95%; VIOTR postemergence injury score 0-100 (viola (Viola tricolor); 7.8 ppm): 75%; IPOHE postemergence injury score 0-100 ([12]; 7.8 ppm): 75%; AVEFA postemergence injury score 0-100 (wild oats (Avena fatua) [13]; 7.8 ppm): 85%; CHEAL postemergence injury score 0-100 ([14]; 7.8 ppm): 90%; CHEAL preemergence injury score 0-100 [15]: 100%; ALOMY postemergence injury score 0-100 ([19]; 7.8 ppm): 80%; XANST postemergence injury score 0-100 ([21]; 7.8 ppm): 95%
COc1cscc1S(=O)(=O)Nc1nc2c(OC)cnc(OC)n2n1 [Compound 7, N-(5,8-dimethoxy[1,2,4]triazolo[1,5-c]pyrimidin-2-yl)-4-methoxythiophene-3-sulfonamide] | 100% | 100% | 85% | 100% | 95% | 100% | 80% | 100% | 85% | 99% | 95% | ABUTH postemergence injury score 0-100 ([1]; 1.9 ppm): 80%; SETFA postemergence injury score 0-100 ([4]; 1.9 ppm): 100%; SORBI postemergence injury score 0-100 ([5]; 1.9 ppm): 98%; STEME postemergence injury score 0-100 ([9]; 1.9 ppm): 98%; VIOTR postemergence injury score 0-100 (viola (Viola tricolor); 1.9 ppm): 80%; IPOHE postemergence injury score 0-100 ([12]; 1.9 ppm): 80%; AVEFA postemergence injury score 0-100 (wild oats (Avena fatua) [13]; 1.9 ppm): 98%; CHEAL postemergence injury score 0-100 ([14]; 1.9 ppm): 60%; ALOMY postemergence injury score 0-100 ([19]; 1.9 ppm): 98%; XANST postemergence injury score 0-100 ([21]; 1.9 ppm): 80%
